Data on ten molecules can be found in patent publication US12202844B2, “MAP4K1 inhibitors” (Blueprint Medicines Corporation, priority 2021, dated 2025).

Structures are written as SMILES.

Experiment [1] deals with Primary T Cell (expanded CD3+ T cells). In words: T cell enhancement of cytokines: IL2 measurement (HTRF) in stimulated expanded CD3+ T cells. In kind it is cell-based, human. The following applies: Homo sapiens, T-cell, 24 h, plate-bound anti-CD3 and soluble anti-CD28, 24 h, IL2 by HTRF; read-out: IL-2 Primary T Cell EC50. The essentials:
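Healthy-donor T cells (95-98% CD3+) expanded 10-14 days with IL2 and CD3/CD28 beads, then cryopreserved. 100K cells/well in X-VIVO 10 serum-free medium were stimulated with plate-bound anti-CD3 plus soluble anti-CD28 with compound at various concentrations for 24 h. Secreted IL2 measured by HTRF after 24 h antibody incubation.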

For experiment [2], the target named is T1, MAP4K1 (HPK1) (Homo sapiens, UniProt Q92918).
T1 construct: purchased Invitrogen
In words: Inhibition of MAP4K1 biochemical enzymatic activity (EZReader 2 electrophoretic mobility shift). The following applies: HPK1 (Invitrogen), S6K2tide 1.5 μM, 120 min; ATP 26 μM or 1000 μM (not given). The essentials: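 Untreated enzyme (0.1-15 nM) was incubated with 1.5 μM fluorescent peptide and 20-1000 μM ATP (apparent Km or 1 mM) in HEPES pH 7.5, MgCl2, DTT, Brij 35 at 25° C. for 60-180 min, with 1% DMSO and a 10-point 4-fold compound series. After an EDTA stop, product/substrate peptide peak ratio was read by mobility shift.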

T1 sequence (Q92918 whole entry): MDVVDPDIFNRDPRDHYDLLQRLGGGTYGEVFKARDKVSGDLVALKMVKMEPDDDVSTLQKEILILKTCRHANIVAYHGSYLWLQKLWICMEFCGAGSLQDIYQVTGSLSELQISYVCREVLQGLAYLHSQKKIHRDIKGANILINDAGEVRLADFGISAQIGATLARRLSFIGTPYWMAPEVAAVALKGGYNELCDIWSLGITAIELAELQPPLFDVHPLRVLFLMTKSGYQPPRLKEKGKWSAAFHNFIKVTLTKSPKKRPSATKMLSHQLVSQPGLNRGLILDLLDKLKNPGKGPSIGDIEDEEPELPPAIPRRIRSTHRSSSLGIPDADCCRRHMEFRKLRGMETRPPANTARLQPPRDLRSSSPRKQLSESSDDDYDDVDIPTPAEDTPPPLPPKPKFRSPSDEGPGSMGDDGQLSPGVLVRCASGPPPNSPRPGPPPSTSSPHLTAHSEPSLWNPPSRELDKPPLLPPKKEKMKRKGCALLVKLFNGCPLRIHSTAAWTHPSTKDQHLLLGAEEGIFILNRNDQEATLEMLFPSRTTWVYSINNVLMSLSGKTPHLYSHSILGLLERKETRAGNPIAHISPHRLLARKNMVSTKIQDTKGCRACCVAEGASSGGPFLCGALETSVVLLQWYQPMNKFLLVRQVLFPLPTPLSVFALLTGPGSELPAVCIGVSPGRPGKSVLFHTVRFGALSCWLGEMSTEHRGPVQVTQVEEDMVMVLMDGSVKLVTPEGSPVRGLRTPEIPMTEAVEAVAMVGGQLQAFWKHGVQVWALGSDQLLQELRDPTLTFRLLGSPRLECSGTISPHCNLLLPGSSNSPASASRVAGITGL

For the molecule `CC[C@@](C)(N)c1cnc(O[C@H](C)C[C@@H](C)S(C)(=O)=O)c2cnc(Nc3ccc4c(n3)[C@@H](C)C(C)(C)OC4=O)cc12` [Compound 129], the concentration giving a half-maximal response (EC50) in experiment [1] amounted to 7 nM. The half-maximal inhibitory concentration (IC50) in experiment [2] is 0.16 nM.

For `CC[C@@](C)(N)c1cnc(O[C@@H](C)CCS(=O)(=O)CC)c2cnc(Nc3ccc4c(n3)[C@@H](C)C(C)(C)OC4=O)cc12` [Compound 132], the 50% effective concentration (EC50) in experiment [1] was 66 nM. Further, the half-inhibitory concentration (IC50) in experiment [2] was 0.19 nM.

As for `CC[C@@](C)(N)c1cnc(O[C@H](C)C[C@@H](C)S(C)(=O)=O)c2cnc(Nc3ccc4c(n3)C3(CC3)C(C)(C)OC4=O)cc12` [Compound 136, 2′-((5-((R)-2-Aminobutan-2-yl)-8-(((2R,4R)-4-(methylsulfonyl)pentan-2-yl)oxy)-2,7-naphthyridin-3-yl)amino)-7′,7′-dimethyl-5′H,7′H-spiro[cyclopropane-1,8′-pyrano[4,3-b]pyridin]-5′-one], the EC50 in experiment [1] was determined as 10 nM. For the same molecule, the IC50 in experiment [2] stood at 0.28 nM.

On to `COC[C@@](C)(N)c1cnc(O[C@H]2C[C@H](CS(C)(=O)=O)C2)c2cnc(Nc3ccc4c(n3)[C@@H](C)C(C)(C)OC4=O)cc12` [Compound 139], for which the half-maximal effective concentration (EC50) in experiment [1] is 74 nM. Further, the IC50 in experiment [2] worked out at 0.36 nM.

Consider `COC[C@@](C)(N)c1cnc(O[C@H]2C[C@@H](CS(C)(=O)=O)C2)c2cnc(Nc3ccc4c(n3)[C@@H](C)C(C)(C)OC4=O)cc12` [Compound 140], for which the EC50 in experiment [1] came to 33 nM. In addition, the IC50 in experiment [2] is 0.33 nM.

`CCS(=O)(=O)[C@H]1C[C@@H](Oc2ncc([C@](C)(N)COC)c3cc(Nc4ccc5c(n4)[C@@H](C)C(C)(C)OC5=O)ncc23)C1` [Compound 141]: the concentration giving a half-maximal response (EC50) in experiment [1] worked out at 15 nM. The half-inhibitory concentration (IC50) in experiment [2] came to 0.15 nM.

Take `CC[C@@](C)(N)c1cnc(O[C@H](C)C[C@@H](C)S(=O)(=O)CC)c2cnc(Nc3ccc4c(n3)[C@@H](C)C(C)(C)OC4=O)cc12` [Compound 143]: in experiment [1], the concentration for a half-maximal effect (EC50) amounted to 16 nM. Besides, in experiment [2], the IC50 was found to be 0.15 nM.

As for `COC[C@@](C)(N)c1cnc(O[C@H](C)C[C@@H](C)S(C)(=O)=O)c2cnc(Nc3ccc4c(n3)[C@@H](C)C(C)(C)OC4=O)cc12` [Compound 144], the concentration giving a half-maximal response (EC50) in experiment [1] was found to be 39 nM. In addition, the IC50 in experiment [2] amounted to 0.23 nM.

`COC[C@@](C)(N)c1cnc(O[C@H]2C[C@@H](S(=O)(=O)C3CC3)C2)c2cnc(Nc3ccc4c(n3)[C@@H](C)C(C)(C)OC4=O)cc12` [Compound 145]: in experiment [1], the EC50 is 32 nM. Also, in experiment [2], the IC50 is 0.21 nM.

For the molecule `COC[C@@](C)(N)c1cnc(O[C@H]2C[C@@H](S(C)(=O)=O)C2)c2cnc(Nc3ccc4c(n3)C3(CC3)C(C)(C)OC4=O)cc12` [Compound 162], the concentration for a half-maximal effect (EC50) in experiment [1] was found to be 32 nM. For the same molecule, in experiment [2], the concentration for half-maximal inhibition (IC50) came out at 0.3 nM.
